From PubChem BioAssay (NCI)
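At the GI50, growth is halved. Definition used: TGI = concentration required for complete inhibition of growth.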

Assays:
Experiment in all cases: NCI-60 cell line screen, 384-well format
[1] = test system: UO-31 renal
[2] = test system: SN12C renal
[3] = test system: PC-3 prostate
[4] = test system: OVCAR-5 ovarian
[5] = test system: MDA-MB-231 breast
[6] = test system: U251 glioblastoma
[7] = test system: SR leukemia
[8] = test system: T-47D breast
[9] = test system: UACC-62 melanoma
[10] = test system: 786-0 renal
[11] = test system: NCI-H226 lung
[12] = test system: RXF 393 renal
[13] = test system: NCI-H522 lung
[14] = test system: SF-539 CNS
[15] = test system: HOP-92 NSCLC
[16] = test system: KM12 colon
[17] = test system: SK-MEL-28 melanoma
[18] = test system: ACHN renal
[19] = test system: M14 melanoma
[20] = test system: MCF7 breast
[21] = test system: HT29 colon
[22] = test system: A498 renal
[23] = test system: OVCAR-4 ovarian
[24] = test system: HCT-116 colon
[25] = test system: MOLT-4 leukemia
[26] = test system: A549 NSCLC
[27] = test system: HCT-15 colon
[28] = test system: NCI-H460 NSCLC
[29] = test system: OVCAR-8 ovarian
[30] = test system: UACC-257 melanoma
[31] = test system: SF-295 CNS
[32] = test system: IGROV1 ovarian
[33] = test system: NCI-H23 lung
[34] = test system: K-562 leukemia
[35] = test system: MALME-3M melanoma
[36] = test system: LOX IMVI melanoma
[37] = test system: OVCAR-3 ovarian
[38] = test system: COLO 205 colon
[39] = test system: DU-145 prostate
[40] = test system: TK-10 renal
[41] = test system: SNB-75 CNS
[42] = test system: SK-OV-3 ovarian
[43] = test system: MDA-MB-468 breast
[44] = test system: SF-268 CNS
[45] = test system: SNB-19 CNS
[46] = test system: NCI/ADR-RES ovarian
[47] = test system: SK-MEL-2 melanoma

CN1CC[C@@H](c2c(O)cc(O)c3c(=O)cc(-c4ccc(C(F)(F)F)cc4Cl)oc23)[C@@H]1CO
GI50 [1]: 10.8 µM
TGI [1]: 23.2 µM
GI50 [2]: 13.7 µM
TGI [2]: 26.7 µM
GI50 [3]: 14.6 µM
TGI [3]: 28.4 µM
GI50 [4]: 16.5 µM
TGI [4]: 37.3 µM
GI50 [5]: 15.9 µM
TGI [5]: 29.9 µM
GI50 [6]: 15.5 µM
TGI [6]: 29 µM
GI50 [7]: 1.88 µM
TGI [7]: 5.32 µM
GI50 [8]: 13.8 µM
TGI [8]: 26.8 µM
GI50 [9]: 9.36 µM
TGI [9]: 21.7 µM
GI50 [10]: 13.6 µM
TGI [10]: 26.7 µM
GI50 [11]: 12.1 µM
TGI [11]: 26.8 µM
GI50 [12]: 12.3 µM
TGI [12]: 24.8 µM
GI50 [13]: 14 µM
TGI [13]: 27.1 µM
GI50 [14]: 16.1 µM
TGI [14]: 29.8 µM
GI50 [15]: 12.7 µM
TGI [15]: 25.3 µM
GI50 [16]: 13.1 µM
TGI [16]: 26 µM
GI50 [17]: 13.5 µM
TGI [17]: 26.4 µM
GI50 [18]: 12.6 µM
TGI [18]: 25.7 µM
GI50 [19]: 17 µM
TGI [19]: 30.8 µM
GI50 [20]: 14.7 µM
TGI [20]: 28.2 µM
GI50 [21]: 17.6 µM
TGI [21]: 31.8 µM
GI50 [22]: 11.8 µM
TGI [22]: 24.2 µM
GI50 [23]: 15.4 µM
TGI [23]: 29.6 µM
GI50 [24]: 12.4 µM
TGI [24]: 25.4 µM
GI50 [25]: 12.7 µM
TGI [25]: 25.4 µM
GI50 [26]: 16.7 µM
TGI [26]: 31.7 µM
GI50 [27]: 16.1 µM
TGI [27]: 30 µM
GI50 [28]: 14.5 µM
TGI [28]: 28 µM
GI50 [29]: 14.2 µM
TGI [29]: 27.4 µM
GI50 [30]: 12.4 µM
TGI [30]: 24.9 µM
GI50 [31]: 16.7 µM
TGI [31]: 30.8 µM
GI50 [32]: 12 µM
TGI [32]: 25.7 µM
GI50 [33]: 14.9 µM
TGI [33]: 28.2 µM
GI50 [34]: 13.9 µM
TGI [34]: 27.3 µM
GI50 [35]: 12.2 µM
TGI [35]: 24.6 µM
GI50 [36]: 14 µM
TGI [36]: 27.1 µM
GI50 [37]: 12.7 µM
TGI [37]: 25.9 µM
GI50 [38]: 18.4 µM
TGI [38]: 32.6 µM
GI50 [39]: 15.5 µM
TGI [39]: 29.3 µM
GI50 [40]: 14.2 µM
TGI [40]: 32.3 µM
GI50 [41]: 12.6 µM
TGI [41]: 25.2 µM
GI50 [42]: 16.3 µM
TGI [42]: 31.1 µM
GI50 [43]: 11.8 µM
TGI [43]: 24.1 µM
GI50 [44]: 15.1 µM
TGI [44]: 28.5 µM
GI50 [45]: 18.7 µM
TGI [45]: 33.9 µM
GI50 [46]: 17.7 µM
TGI [46]: 35.9 µM
GI50 [47]: 14.5 µM
TGI [47]: 27.7 µM

Cn1c(Nc2ccc(C(F)(F)F)cc2)nc2cc(Oc3ccnc(-c4ncc(C(F)(F)F)[nH]4)c3)ccc21
GI50 [1]: 0.332 µM
TGI [1]: 12.6 µM
GI50 [2]: 0.0464 µM
TGI [2]: 11.8 µM
GI50 [3]: 0.833 µM
TGI [3]: 12.3 µM
GI50 [4]: 1.43 µM
TGI [4]: 13.1 µM
GI50 [5]: 0.0367 µM
TGI [5]: 1.8 µM
GI50 [6]: 0.0979 µM
TGI [6]: 12.7 µM
GI50 [7]: 0.27 µM
TGI [7]: 2.11 µM
GI50 [8]: 0.274 µM
TGI [8]: 9.06 µM
GI50 [9]: 0.027 µM
TGI [9]: 0.462 µM
GI50 [10]: 0.615 µM
TGI [10]: 6.25 µM
GI50 [11]: 1.5 µM
TGI [11]: 19.2 µM
GI50 [12]: 0.0159 µM
TGI [12]: 0.348 µM
GI50 [13]: 0.0556 µM
TGI [13]: 11 µM
GI50 [14]: 0.346 µM
TGI [14]: 7.74 µM
GI50 [15]: 0.584 µM
TGI [15]: 6 µM
GI50 [16]: 0.734 µM
TGI [16]: 12.5 µM
GI50 [17]: 0.046 µM
TGI [17]: 0.408 µM
GI50 [18]: 0.0205 µM
TGI [18]: 11.3 µM
GI50 [19]: 0.0184 µM
TGI [19]: 0.332 µM
GI50 [20]: 1.59 µM
TGI [20]: 6.67 µM
GI50 [21]: 0.396 µM
TGI [21]: 13.7 µM
TGI [22]: 12.9 µM
GI50 [23]: 0.454 µM
TGI [23]: 11.7 µM
GI50 [24]: 0.0625 µM
TGI [24]: 3.55 µM
GI50 [25]: 0.0553 µM
TGI [25]: 0.197 µM
GI50 [26]: 0.254 µM
TGI [26]: 12.4 µM
GI50 [27]: 0.0537 µM
TGI [27]: 10.3 µM
GI50 [28]: 0.237 µM
TGI [28]: 10.3 µM
GI50 [29]: 0.493 µM
TGI [29]: 10.6 µM
GI50 [30]: 0.137 µM
TGI [30]: 1.51 µM
GI50 [31]: 0.249 µM
TGI [31]: 5.66 µM
GI50 [32]: 0.041 µM
TGI [32]: 11.2 µM
GI50 [33]: 0.179 µM
TGI [33]: 2.33 µM
GI50 [34]: 0.63 µM
TGI [34]: 2.13 µM
GI50 [35]: 0.0144 µM
TGI [35]: 0.0443 µM
GI50 [36]: 0.0547 µM
TGI [36]: 1.54 µM
GI50 [37]: 0.158 µM
TGI [37]: 2.46 µM
GI50 [38]: 0.122 µM
TGI [38]: 1.42 µM
GI50 [39]: 0.0352 µM
TGI [39]: 13.6 µM
GI50 [40]: 0.0896 µM
TGI [40]: 11.8 µM
GI50 [41]: 0.0711 µM
TGI [41]: 13 µM
GI50 [42]: 0.0127 µM
TGI [42]: 12.5 µM
GI50 [43]: 0.0741 µM
TGI [43]: 0.825 µM
GI50 [44]: 0.387 µM
TGI [44]: 13.3 µM
GI50 [45]: 0.359 µM
TGI [45]: 19.8 µM
GI50 [46]: 0.567 µM
TGI [46]: 2.84 µM
GI50 [47]: 0.0238 µM
TGI [47]: 0.101 µM
